Measurements as given in patent US8022061B2, “N-aryl pyrazole compounds, compositions, and methods for their use” (Amgen Inc., priority 2006, dated 2011).

Tested on: C57B6 mice
Experiment: Glucose lowering effect after oral glucose challenge in C57B6 mice
Type: in vivo
Conditions: male C57B6 mice, p.o. 30 minutes before oral glucose 3 g/kg; blood glucose before, 20 and 50 minutes after challenge; relative to control group
Procedure: The following example describes the glucose lowering effect of compounds observed in vivo.
Male C57B6 mice were placed into control and treatment groups having similar averages of body weights. Then, animals were dosed with vehicle (control group) or test article (5 ml/kg, p.o.). Thirty minutes after dosing, glucose (3 g/kg) was orally administered in each animal. Blood samples were collected just before, 20 minutes and 50 minutes after glucose challenge and glucose concentrations in the samples was assessed. The values in Table 2 represent the observed % AUC reduction of blood glucose in the treated animals relative to the control group.

Row | SMILES | % AUC reduction in glucose levels
1 | CCOCc1c(C(=O)NCc2c(CO)ncn2C)cnn1-c1ncc(C)c(N2CCc3ccccc3C2)n1 [1-[4-(3,4-Dihydroisoquinolin-2(1H)-yl)-5-methylpyrimidin-2-yl]-5-(ethoxymethyl)-N-{[4-(hydroxymethyl)-1-methyl-1H-imidazol-5-yl]methyl}-1H-pyrazole-4-carboxamide] | 63%
2 | CCOCc1c(C(=O)NCc2cncn2C)cnn1-c1ncc(C)c(N2CC(F)(F)C(F)(F)C2)n1 [5-(Ethoxymethyl)-N-[(1-methyl-1H-imidazol-5-yl)methyl]-1-[5-methyl-4-(3,3,4,4-tetrafluoropyrrolidin-1-yl)pyrimidin-2-yl]-1H-pyrazole-4-carboxamide] | 11%
3 | CCCc1c(C(=O)NCc2c(CO)ncn2C)cnn1-c1ncc(C)c(N2CCOCC2)n1 [N-{[4-(Hydroxymethyl)-1-methyl-1H-imidazol-5-yl]methyl}-1-(5-methyl-4-morpholin-4-ylpyrimidin-2-yl)-5-propyl-1H-pyrazole-4-carboxamide] | 6%
4 | COCc1c(C(=O)NCc2c(CO)ncn2C)cnn1-c1ncc(C)c(-c2ccoc2)n1 [1-[4-(3-Furyl)-5-methylpyrimidin-2-yl]-N-[{4-(hydroxymethyl)-1-methyl-1H-imidazol-5-yl]methyl}-5-(methoxymethyl)-1H-pyrazole-4-carboxamide] | 29%
5 | CCCCc1c(C(=O)NCc2cnc3ccccn23)cnn1-c1ncc(C)c(N2CCCC2)n1 [5-Butyl-N-(imidazo[1,2-a]pyridin-3-ylmethyl)-1-(5-methyl-4-pyrrolidin-1-ylpyrimidin-2-yl)-1H-pyrazole-4-carboxamide] | 34%
6 | COCc1c(C(=O)NCc2c(CO)ncn2C)cnn1-c1ncc(C)c(N2CCCCC2)n1 [N-{[4-(Hydroxymethyl)-1-methyl-1H-imidazol-5-yl]methyl}-5-(methoxymethyl)-1-(5-methyl-4-piperidin-1-ylpyrimidin-2-yl)-1H-pyrazole-4-carboxamide] | 14%
7 | CCCCc1c(C(=O)NCc2cncn2C)cnn1-c1ncc(Cl)c(NC2CC2)n1 [5-Butyl-1-[5-chloro-4-(cyclopropylamino)pyrimidin-2-yl]-N-[(1-methyl-1H-imidazol-5-yl)methyl]-1H-pyrazole-4-carboxamide] | 7%
8 | CCCCc1c(C(=O)NCc2cnc3cc(C(=O)OC)ccn23)cnn1-c1ncc(Cl)c(NC2CC2)n1 [Methyl 3-{[({5-butyl-1-[5-chloro-4-(cyclopropylamino)pyrimidin-2-yl]-1H-pyrazol-4-yl}carbonyl)amino]methyl}imidazo[1,2-a]pyridine-7-carboxylate] | 24%
9 | CCOCc1c(C(=O)NCc2c(CO)ncn2C)cnn1-c1ncc(Cl)c(-c2cccs2)n1 [1-[5-Chloro-4-(2-thienyl)pyrimidin-2-yl]-5-(ethoxymethyl)-N-{[4-(hydroxymethyl)-1-methyl-1H-imidazol-5-yl]methyl}-1H-pyrazole-4-carboxamide] | 41%
10 | COCCc1c(C(=O)NCc2cncn2C)cnn1-c1ncc(C)c(-c2cccs2)n1 [5-(2-Methoxyethyl)-N-[(1-methyl-1H-imidazol-5-yl)methyl]-1-[5-methyl-4-(2-thienyl)pyrimidin-2-yl]-1H-pyrazole-4-carboxamide] | 25%
11 | CCOCc1c(C(=O)NCc2cncn2C)cnn1-c1ncc(C)c(-c2ccsc2)n1 [5-(Ethoxymethyl)-N-[(1-methyl-1H-imidazol-5-yl)methyl]-1-[5-methyl-4-(3-thienyl)pyrimidin-2-yl]-1H-pyrazole-4-carboxamide] | 51%
12 | CCOCc1c(C(=O)NCc2cncn2C)cnn1-c1ncc(C)c(-c2nccs2)n1 [5-(Ethoxymethyl)-N-[(1-methyl-1H-imidazol-5-yl)methyl]-1-[5-methyl-4-(1,3-thiazol-2-yl)pyrimidin-2-yl]-1H-pyrazole-4-carboxamide] | 41%
13 | CCOCc1c(C(=O)NCc2cncn2C)cnn1-c1ncc(C)c(N2CCCC2)n1 [5-(Ethoxymethyl)-N-[(1-methyl-1H-imidazol-5-yl)methyl]-1-(5-methyl-4-pyrrolidin-1-ylpyrimidin-2-yl)-1H-pyrazole-4-carboxamide] | 18%
14 | CCCCc1c(C(=O)NCc2c(C)nc3ccccn23)cnn1-c1ncc(C)c(-c2cccs2)n1 [5-Butyl-N-[(2-methylimidazo[1,2-a]pyridin-3-yl)methyl]-1-[5-methyl-4-(2-thienyl)pyrimidin-2-yl]-1H-pyrazole-4-carboxamide] | 35%
15 | COCc1c(C(=O)NCc2c(CO)ncn2C)cnn1-c1ncc(C)c(-c2cccs2)n1 [N-{[4-(Hydroxymethyl)-1-methyl-1H-imidazol-5-yl]methyl}-5-(methoxymethyl)-1-[5-methyl-4-(2-thienyl)pyrimidin-2-yl]-1H-pyrazole-4-carboxamide] | 14%
16 | CCOCc1c(C(=O)NCc2cncn2C)cnn1-c1ncc(C)c(-c2ccccc2)n1 [5-(Ethoxymethyl)-N-[(1-methyl-1H-imidazol-5-yl)methyl]-1-(5-methyl-4-phenylpyrimidin-2-yl)-1H-pyrazole-4-carboxamide] | 35%
17 | CCCCc1c(C(=O)NCc2c(C)ncn2C(C)(C)C(=O)O)cnn1-c1ncc(C)c(-c2cccs2)n1 [2-(5-{[({5-Butyl-1-[5-methyl-4-(2-thienyl)pyrimidin-2-yl]-1H-pyrazol-4-yl}carbonyl)amino]methyl}-4-methyl-1H-imidazol-1-yl)-2-methylpropanoic acid] | 15%
18 | CCCCc1c(C(=O)NCc2cnc3ccccn23)cnn1-c1ncc(Cl)c(NC2CC2)n1 [5-Butyl-1-[5-chloro-4-(cyclopropylamino)pyrimidin-2-yl]-N-(imidazo[1,2-a]pyridin-3-ylmethyl)-1H-pyrazole-4-carboxamide] | 32%
19 | CCOCc1c(C(=O)NCc2c(CO)ncn2C)cnn1-c1ncc(C)c(-c2cccs2)n1 [5-(Ethoxymethyl)-N-{[4-(hydroxymethyl)-1-methyl-1H-imidazol-5-yl]methyl}-1-[5-methyl-4-(2-thienyl)pyrimidin-2-yl]-1H-pyrazole-4-carboxamide] | 35%
20 | CCOCc1c(C(=O)NCc2cncn2C)cnn1-c1ncc(C)c(-c2cccs2)n1 [5-(Ethoxymethyl)-N-((1-methyl-1H-imidazol-5-yl)methyl)-1-(5-methyl-4-(thiophen-2-yl)pyrimidin-2-yl)-1H-pyrazole-4-carboxamide] | 16%
21 | CCOCc1c(C(=O)NCc2cncn2C)cnn1-c1ncc(C)c(-c2ccco2)n1 [5-(Ethoxymethyl)-1-[4-(2-furyl)-5-methylpyrimidin-2-yl]-N-[(1-methyl-1H-imidazol-5-yl)methyl]-1H-pyrazole-4-carboxamide] | 51%
22 | CCCc1c(C(=O)NCc2c(CO)ncn2C)cnn1-c1ncc(C)c(-c2ccoc2)n1 [1-[4-(3-Furyl)-5-methylpyrimidin-2-yl]-N-{[4-(hydroxymethyl)-1-methyl-1H-imidazol-5-yl]methyl}-5-propyl-1H-pyrazole-4-carboxamide] | 19%
23 | CCOCc1c(C(=O)NCc2cncn2C)cnn1-c1ncc(C)c(N2CCCCC2)n1 [5-(Ethoxymethyl)-N-((1-methyl-1H-imidazol-5-yl)methyl)-1-(5-methyl-4-(piperidin-1-yl)pyrimidin-2-yl)-1H-pyrazole-4-carboxamide] | 42%
